Consider 16 compounds from patent US12466827B2, “1,3,4-oxadiazole derivative compounds as histone deacetylase 6 inhibitor, and the pharmaceutical composition comprising the same” (CHONG KUN DANG PHARMACEUTICAL CORP., priority 2020, dated 2025).

One assay addresses T1, human recombinant HDAC1 (Homo sapiens, UniProt Q13547).
T1 construct: purchased Enzo Life Sciences, Inc. BML-SE456
In words: In vitro HDAC enzyme activity inhibition assay (HDAC1). Format: biochemical. The note with it: Fluor de Lys-SIRT1 substrate 10 μM, 30° C., 60 minutes, fluorescence. The protocol: (§1) In order to confirm the selectivity of the compounds represented by Chemical Formula I of the present invention to HDAC6 through HDAC1 and HDAC6 enzyme activity inhibition experiments, a comparison experiment was performed using the material that has already been developed as a control group.
(§2) HDAC enzyme activity was measured using the HDAC Fluorimetric Drug Discovery Kit (Enzo Life Sciences, Inc., BML-AK511, 516). For the HDAC1 enzyme activity test, human recombinant HDAC1 (BML-SE456) was used as an enzyme source and Fluor de Lys-SIRT1 (BNL-KI177) was used as a substrate. After dispensing 5-fold diluted compounds into a 96-well plate, 0.3 μg of enzyme and 10 μM substrate were added to each well of the plate and allowed to react at 30° C. for 60 minutes. Next, Fluor de Lys Developer II (BML-KI176) was added and reacted for 30 minutes to complete the reaction, and then the fluorescence values (Ex 360, Em 460) were measured using a multi-plate reader (Flexstation 3, Molecular Device). The HDAC6 enzymes were tested using human recombinant HDAC6 (382180) from Calbiochem Inc., according to the same protocol as the HDAC1 enzyme activity test method. With respect to the final result values, respective IC50 values were calculated using GraphPad Prism 4.0 program, and results thereof were summarized in Table 4 below.

The next assay addresses T2, human recombinant HDAC6 (Homo sapiens, UniProt Q9UBN7).
T2 construct: purchased Calbiochem Inc. 382180
T2 sequence (Q9UBN7 1-1215): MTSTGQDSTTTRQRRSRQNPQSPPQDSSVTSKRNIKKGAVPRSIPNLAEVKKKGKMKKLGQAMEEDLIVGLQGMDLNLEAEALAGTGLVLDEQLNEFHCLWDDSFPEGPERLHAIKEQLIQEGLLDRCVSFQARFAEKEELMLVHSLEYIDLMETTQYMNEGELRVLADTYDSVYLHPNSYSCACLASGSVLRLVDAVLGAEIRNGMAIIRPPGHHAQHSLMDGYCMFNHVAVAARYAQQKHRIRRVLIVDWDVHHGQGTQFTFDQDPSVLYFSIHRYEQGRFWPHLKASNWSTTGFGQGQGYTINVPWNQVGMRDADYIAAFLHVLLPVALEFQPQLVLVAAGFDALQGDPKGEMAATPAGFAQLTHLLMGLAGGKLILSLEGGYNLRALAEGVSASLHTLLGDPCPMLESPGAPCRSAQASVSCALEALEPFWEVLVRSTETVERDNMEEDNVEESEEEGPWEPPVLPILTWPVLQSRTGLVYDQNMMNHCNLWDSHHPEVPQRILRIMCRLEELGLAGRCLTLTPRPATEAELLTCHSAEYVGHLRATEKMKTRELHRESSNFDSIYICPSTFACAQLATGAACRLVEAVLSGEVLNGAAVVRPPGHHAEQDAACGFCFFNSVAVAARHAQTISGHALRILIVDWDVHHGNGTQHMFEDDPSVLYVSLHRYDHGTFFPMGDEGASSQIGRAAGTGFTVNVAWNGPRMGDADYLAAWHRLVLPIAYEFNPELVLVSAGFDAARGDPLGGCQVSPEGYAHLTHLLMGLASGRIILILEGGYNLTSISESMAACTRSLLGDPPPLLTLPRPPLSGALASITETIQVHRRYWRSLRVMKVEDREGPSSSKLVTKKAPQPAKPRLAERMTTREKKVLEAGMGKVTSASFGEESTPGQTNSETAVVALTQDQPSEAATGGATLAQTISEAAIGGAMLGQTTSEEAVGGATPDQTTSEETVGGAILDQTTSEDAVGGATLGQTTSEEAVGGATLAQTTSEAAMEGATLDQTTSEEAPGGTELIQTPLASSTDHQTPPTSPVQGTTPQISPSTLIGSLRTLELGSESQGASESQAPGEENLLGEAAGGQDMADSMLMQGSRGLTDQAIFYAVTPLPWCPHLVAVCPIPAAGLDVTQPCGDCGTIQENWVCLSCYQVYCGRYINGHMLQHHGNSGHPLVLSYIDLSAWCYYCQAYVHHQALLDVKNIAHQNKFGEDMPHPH
The experiment in a line: In vitro HDAC enzyme activity inhibition assay (HDAC6). Format: biochemical. The conditions noted are these: for HDAC6 selectivity (fold): HDAC6 over HDAC1; for IC50: same protocol as the HDAC1 test, human recombinant HDAC6 (Calbiochem). The protocol:
as §1, §2

As usually defined, the IC50 is the point on the concentration scale where inhibition reaches its midpoint.

The structures appear in SMILES notation.

T1 sequence (Q13547 whole entry): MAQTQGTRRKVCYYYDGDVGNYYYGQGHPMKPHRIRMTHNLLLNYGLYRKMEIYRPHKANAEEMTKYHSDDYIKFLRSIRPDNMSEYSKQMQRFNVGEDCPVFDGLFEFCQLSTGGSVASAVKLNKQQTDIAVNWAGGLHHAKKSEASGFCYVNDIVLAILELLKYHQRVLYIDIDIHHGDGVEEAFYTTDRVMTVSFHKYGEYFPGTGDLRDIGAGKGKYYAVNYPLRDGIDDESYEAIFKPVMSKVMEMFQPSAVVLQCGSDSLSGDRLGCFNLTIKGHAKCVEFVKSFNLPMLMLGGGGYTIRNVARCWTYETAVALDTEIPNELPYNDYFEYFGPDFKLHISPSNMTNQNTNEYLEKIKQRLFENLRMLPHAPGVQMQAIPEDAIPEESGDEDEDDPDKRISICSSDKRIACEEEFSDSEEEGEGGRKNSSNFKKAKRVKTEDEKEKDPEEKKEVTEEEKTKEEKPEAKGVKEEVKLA

On to `O=C(N1CCC(S(=O)(=O)N(Cc2cn3ccc(-c4nnc(C(F)F)o4)cc3n2)c2cccc(F)c2)CC1)C(F)(F)F` [Compound 4250, N-((7-(5-(difluoromethyl)-1,3,4-oxadiazol-2-yl)imidazo[1,2-a]pyridin-2-yl)methyl)-N-(3-fluorophenyl)-1-(2,2,2-trifluoroacetyl)piperidine-4-sulfonamide], for which the IC50 on human recombinant HDAC1 was > 50000 nM; at human recombinant HDAC6 it was 116 nM. Also, the “HDAC6 selectivity (fold)” value on human recombinant HDAC6 came out at 431 fold.

Regarding `CS(=O)(=O)N1CCC(S(=O)(=O)N(Cc2cn3ccc(-c4nnc(C(F)F)o4)cc3n2)c2cccc(F)c2)CC1` [Compound 4251, N-((7-(5-(difluoromethyl)-1,3,4-oxadiazol-2-yl)imidazo[1,2-a]pyridin-2-yl)methyl)-N-(3-fluorophenyl)-1-(methylsulfonyl)piperidine-4-sulfonamide], the IC50 at human recombinant HDAC1 was > 50000 nM; on human recombinant HDAC6 it was 95.2 nM. For the same compound, the “HDAC6 selectivity (fold)” value at human recombinant HDAC6 is recorded as 525 fold.

Turning to `COC(=O)N1CCC(S(=O)(=O)N(Cc2cn3ccc(-c4nnc(C(F)F)o4)cc3n2)c2cccc(F)c2)CC1` [Compound 4252, methyl 4-(N-((7-(5-(difluoromethyl)-1,3,4-oxadiazol-2-yl)imidazo[1,2-a]pyridin-2-yl)methyl)-N-(3-fluorophenyl)sulfamoyl)piperidine-1-carboxylate], the IC50 on human recombinant HDAC1 is > 50000 nM. Moreover, on human recombinant HDAC6, the “HDAC6 selectivity (fold)” value came to 455 fold and the IC50 was determined as 110 nM.

As to `CN(C)C(=O)N1CCC(S(=O)(=O)N(Cc2cn3ccc(-c4nnc(C(F)F)o4)cc3n2)c2cccc(F)c2)CC1` [Compound 4253, 4—(N-((7-(5-(difluoromethyl)-1,3,4-oxadiazol-2-yl)imidazo[1,2-a]pyridin-2-yl)methyl)-N-(3-fluorophenyl)sulfamoyl)-N, N-dimethylpiperidine-1-carboxamide], the IC50 on human recombinant HDAC1 is > 50000 nM. For the same compound, at human recombinant HDAC6, the “HDAC6 selectivity (fold)” value is recorded as 503 fold and the IC50 came out at 99.4 nM.

On to `O=S(=O)(C1CCN(c2ccccn2)CC1)N(Cc1cn2ccc(-c3nnc(C(F)F)o3)cc2n1)c1cccc(F)c1` [Compound 4254, N-((7-(5-(difluoromethyl)-1,3,4-oxadiazol-2-yl)imidazo[1,2-a]pyridin-2-yl)methyl)-N-(3-fluorophenyl)-1-(pyridin-2-yl)piperidine-4-sulfonamide], for which the IC50 at human recombinant HDAC1 is > 50000 nM. Further, on human recombinant HDAC6, the “HDAC6 selectivity (fold)” value came to 430 fold and the IC50 was 116 nM.

For the compound `O=S(=O)(C1CCN(c2ncccn2)CC1)N(Cc1cn2ccc(-c3nnc(C(F)F)o3)cc2n1)c1cccc(F)c1` [Compound 4255, N-((7-(5-(difluoromethyl)-1,3,4-oxadiazol-2-yl)imidazo[1,2-a]pyridin-2-yl)methyl)-N-(3-fluorophenyl)-1-(pyrimidin-2-yl)piperidine-4-sulfonamide], the IC50 on human recombinant HDAC1 is > 50000 nM. At human recombinant HDAC6, the “HDAC6 selectivity (fold)” value was found to be 463 fold and the IC50 came to 108 nM.

Consider `CN1CCN(S(=O)(=O)N(Cc2cn3ccc(-c4nnc(C(F)F)o4)cc3n2)c2ccccc2)CC1` [Compound 4256, N-((7-(5-(difluoromethyl)-1,3,4-oxadiazol-2-yl)imidazo[1,2-a]pyridin-2-yl)methyl)-4-methyl-N-phenylpiperazine-1-sulfonamide], for which, on human recombinant HDAC1, the IC50 is > 50000 nM. In addition, at human recombinant HDAC6, the “HDAC6 selectivity (fold)” value was 630 fold and the IC50 was 79.4 nM.

With `CCN1CCN(S(=O)(=O)N(Cc2cn3ccc(-c4nnc(C(F)F)o4)cc3n2)c2ccccc2)CC1` [Compound 4257, N-((7-(5-(difluoromethyl)-1,3,4-oxadiazol-2-yl)imidazo[1,2-a]pyridin-2-yl)methyl)-4-ethyl-N-phenylpiperazine-1-sulfonamide], the IC50 at human recombinant HDAC1 was > 50000 nM. At human recombinant HDAC6, the “HDAC6 selectivity (fold)” value turned out to be 674 fold and the IC50 was found to be 74.2 nM.

Regarding `CC(C)N1CCN(S(=O)(=O)N(Cc2cn3ccc(-c4nnc(C(F)F)o4)cc3n2)c2ccccc2)CC1` [Compound 4258, N-((7-(5-(difluoromethyl)-1,3,4-oxadiazol-2-yl)imidazo[1,2-a]pyridin-2-yl)methyl)-4-isopropyl-N-phenylpiperazine-1-sulfonamide], at human recombinant HDAC1, the IC50 is > 50000 nM. Further, at human recombinant HDAC6, the “HDAC6 selectivity (fold)” value is on record as 500 fold and the IC50 worked out at 100 nM.

For `CC(CO)N1CCN(S(=O)(=O)N(Cc2cn3ccc(-c4nnc(C(F)F)o4)cc3n2)c2ccccc2)CC1` (stereo not drawn) [Compound 4259, N-((7-(5-(difluoromethyl)-1,3,4-oxadiazol-2-yl)imidazo[1,2-a]pyridin-2-yl)methyl)-4-(1-hydroxypropan-2-yl)-N-phenylpiperazine-1-sulfonamide], the half-inhibitory concentration (IC50) at human recombinant HDAC1 was > 50000 nM. Moreover, at human recombinant HDAC6, the “HDAC6 selectivity (fold)” value came out at 605 fold and the IC50 stood at 82.6 nM.

`O=S(=O)(N1CCN(C2CCC2)CC1)N(Cc1cn2ccc(-c3nnc(C(F)F)o3)cc2n1)c1ccccc1` [Compound 4260, 4-cyclobutyl-N-((7-(5-(difluoromethyl)-1,3,4-oxadiazol-2-yl)imidazo[1,2-a]pyridin-2-yl)methyl)-N-phenylpiperazine-1-sulfonamide]: the IC50 on human recombinant HDAC1 was > 50000 nM. At human recombinant HDAC6, the “HDAC6 selectivity (fold)” value is 573 fold and the IC50 worked out at 87.3 nM.

`O=S(=O)(N1CCN(C2COC2)CC1)N(Cc1cn2ccc(-c3nnc(C(F)F)o3)cc2n1)c1ccccc1` [Compound 4261, N-((7-(5-(difluoromethyl)-1,3,4-oxadiazol-2-yl)imidazo[1,2-a]pyridin-2-yl)methyl)-4-(oxetan-3-yl)-N-phenylpiperazine-1-sulfonamide]: the IC50 at human recombinant HDAC1 is > 50000 nM; on human recombinant HDAC6 it was 85 nM. The “HDAC6 selectivity (fold)” value at human recombinant HDAC6 stood at 588 fold.

For the compound `O=S(=O)(N1CCN(C2CCCCC2)CC1)N(Cc1cn2ccc(-c3nnc(C(F)F)o3)cc2n1)c1ccccc1` [Compound 4262, 4-cyclohexyl-N-((7-(5-(difluoromethyl)-1,3,4-oxadiazol-2-yl)imidazo[1,2-a]pyridin-2-yl)methyl)-N-phenylpiperazine-1-sulfonamide], the IC50 on human recombinant HDAC1 was > 50000 nM; on human recombinant HDAC6, 299 nM. Moreover, on human recombinant HDAC6, the “HDAC6 selectivity (fold)” value was determined as 167 fold.

`O=S(=O)(N1CCN(C2CCOCC2)CC1)N(Cc1cn2ccc(-c3nnc(C(F)F)o3)cc2n1)c1ccccc1` [Compound 4263, N-((7-(5-(difluoromethyl)-1,3,4-oxadiazol-2-yl)imidazo[1,2-a]pyridin-2-yl)methyl)-N-phenyl-1-(tetrahydro-2H-pyran-4-yl)piperazine-1-sulfonamide]: at human recombinant HDAC1, the IC50 is > 50000 nM. In addition, at human recombinant HDAC6, the “HDAC6 selectivity (fold)” value was 397 fold and the IC50 worked out at 126 nM.

Take `O=S(=O)(N1CCN(C2CCC(F)(F)CC2)CC1)N(Cc1cn2ccc(-c3nnc(C(F)F)o3)cc2n1)c1ccccc1` [Compound 4264]: the IC50 at human recombinant HDAC1 was > 50000 nM. Further, at human recombinant HDAC6, the “HDAC6 selectivity (fold)” value stood at 246 fold and the IC50 was 203 nM.

With `CC(=O)N1CCN(S(=O)(=O)N(Cc2cn3ccc(-c4nnc(C(F)F)o4)cc3n2)c2ccccc2)CC1` [Compound 4265, 4-acetyl-N-((7-(5-(difluoromethyl)-1,3,4-oxadiazol-2-yl)imidazo[1,2-a]pyridin-2-yl)methyl)-N-phenylpiperazine-1-sulfonamide], the IC50 on human recombinant HDAC1 was > 50000 nM. In addition, at human recombinant HDAC6, the “HDAC6 selectivity (fold)” value stood at 585 fold and the IC50 worked out at 85.5 nM.
